Measurements reported in ChEMBL document CHEMBL1128364 (J Med Chem, 1995).
Values belong to the compound of their own block, whether it stands above or below them. Numbered stars: 1 amine (or outer) side, 2 acyl side, 3 side chain; on linkers, the order of the positions; unused ones are H or OH. Bridge positions count the residues as written; N and C are the ends. Square brackets hold non-standard residues; d marks the D form. Peptide text beside a SMILES is read from it. X2 = O=C(CC1(S[*:2])CCCCC1)[*:1]

How the values were obtained:
[1] = test system: Rattus norvegicus; assay: (§1) In vivo anti-oxytocic activity was determined.; format: functional, organism-based; conditions: read-out: pA2 (converted)
[2] = target: Vasopressin V1a receptor (Rattus norvegicus, UniProt P30560); assay: (§2) Anti-vasopressor activity at V1a receptor; conditions: for Kb: read-out: pA2 (converted)
[3] = target: T1, Oxytocin receptor (Rattus norvegicus, UniProt P70536); assay: In vitro anti-oxytocic activity with out Mg2+.; conditions: for Kb: read-out: pA2 (converted)
T1 sequence (P70536 whole entry): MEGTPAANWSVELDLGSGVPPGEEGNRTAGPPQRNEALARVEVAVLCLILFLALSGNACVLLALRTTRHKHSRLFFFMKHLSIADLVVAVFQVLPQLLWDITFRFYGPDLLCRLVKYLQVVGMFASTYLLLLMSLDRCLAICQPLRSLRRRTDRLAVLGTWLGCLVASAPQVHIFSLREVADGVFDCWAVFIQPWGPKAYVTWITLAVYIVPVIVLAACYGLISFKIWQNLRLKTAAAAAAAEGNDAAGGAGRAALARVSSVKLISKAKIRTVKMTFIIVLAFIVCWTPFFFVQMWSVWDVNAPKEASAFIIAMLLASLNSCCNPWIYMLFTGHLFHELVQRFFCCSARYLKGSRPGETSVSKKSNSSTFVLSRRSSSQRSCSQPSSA

[4] = target: Vasopressin V2 receptor (Rattus norvegicus, UniProt Q00788); assay: (§3) Antidiuretic activity at V2 receptor; format: tissue-based, Urine; conditions: read-out: pA2 (converted)
[5] = target: T1, Oxytocin receptor; assay: In vitro anti-oxytocic activity with 0.5 mM Mg2+.; conditions: for Kb: read-out: pA2 (converted)
[6] = target: Vasopressin V1a receptor (Rattus norvegicus) (UniProt P30560); assay: as §2
[7] = test system: Rattus norvegicus; assay: (§4) In vivo activity for the anti-oxytocic activity.; format: functional
[8] = target: Vasopressin V2 receptor (Rattus norvegicus) (UniProt Q00788); assay: as §3; format: tissue-based; conditions: Urine
[9] = target: T1, Oxytocin receptor; assay: In vitro antioxycic activity with out Mg2+.; conditions: read-out: pA2 (converted)
[10] = target: Vasopressin V2 receptor (Rattus norvegicus) (UniProt Q00788); assay: Antidiuretic activity at V2 receptor.; conditions: Urine
[11] = target: T2, Oxytocin receptor (Rattus norvegicus) (UniProt P70536); assay: Compound was evaluated for the oxytocic activity with out Mg2+.
T2 sequence (whole entry): T1 sequence (P70536 whole entry)

[12] = test system: Rattus norvegicus; assay: as §4; format: functional, organism-based; conditions: read-out: pA2 (converted)
[13] = test system: Rattus norvegicus; assay: as §1; format: functional

Chain of Vasopressin V1a receptor (Rattus norvegicus) (P30560 whole entry, looked up): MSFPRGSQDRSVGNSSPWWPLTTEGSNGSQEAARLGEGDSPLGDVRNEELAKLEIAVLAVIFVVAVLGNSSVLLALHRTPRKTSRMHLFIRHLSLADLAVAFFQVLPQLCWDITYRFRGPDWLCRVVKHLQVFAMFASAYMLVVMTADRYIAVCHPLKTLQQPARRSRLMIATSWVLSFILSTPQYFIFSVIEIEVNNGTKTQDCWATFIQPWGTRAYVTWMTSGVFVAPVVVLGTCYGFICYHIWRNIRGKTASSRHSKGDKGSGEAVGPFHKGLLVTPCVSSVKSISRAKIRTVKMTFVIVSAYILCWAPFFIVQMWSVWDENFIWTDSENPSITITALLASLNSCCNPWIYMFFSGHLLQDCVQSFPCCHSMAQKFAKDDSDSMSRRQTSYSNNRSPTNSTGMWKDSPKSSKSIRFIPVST
Chain of Vasopressin V1a receptor (P30560 whole entry): as the sequence (P30560 whole entry, looked up) above
Chain of Vasopressin V2 receptor (Q00788 whole entry): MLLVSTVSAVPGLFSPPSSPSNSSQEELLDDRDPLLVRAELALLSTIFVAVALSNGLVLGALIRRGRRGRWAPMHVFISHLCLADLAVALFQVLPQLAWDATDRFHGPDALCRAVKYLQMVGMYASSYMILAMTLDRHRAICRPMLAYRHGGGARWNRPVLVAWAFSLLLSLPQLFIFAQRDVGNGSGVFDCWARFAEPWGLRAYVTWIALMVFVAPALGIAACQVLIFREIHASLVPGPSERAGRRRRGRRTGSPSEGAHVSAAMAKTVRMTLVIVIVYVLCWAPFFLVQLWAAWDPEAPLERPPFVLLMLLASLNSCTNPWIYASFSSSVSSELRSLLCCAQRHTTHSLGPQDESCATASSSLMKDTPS
Chain of Vasopressin V2 receptor (Rattus norvegicus) (Q00788 whole entry): as above

- Kb [2]: 275 nM
- Kb [3]: 18.6 nM
- Kb [4]: 3980 nM
- Kb [5]: 25.1 nM
Structure (SMILES): CC[C@H](C)[C@@H]1NC(=O)[C@H](Cc2ccc(OC)cc2)NC(=O)CC2(CCCCC2)SSC[C@H](C(=O)N2CCC[C@H]2C(=O)N[C@@H](CCCN)C(=O)O)NC(=O)[C@H](CC(N)=O)NC(=O)[C@H]([C@@H](C)O)NC1=O
- Kb [1]: 138 nM

Structure (SMILES): CC[C@H](C)[C@@H]1NC(=O)[C@H](Cc2cc3ccccc3[nH]2)NC(=O)CC2(CCCCC2)SSC[C@H](C(=O)N2CCC[C@H]2C(=O)N[C@@H](CCCN=C(N)N)C(=O)NCC(N)=O)NC(=O)[C@H](CC(N)=O)NC(=O)[C@H](CCC(N)=O)NC1=O
- ED [6]: 2 nM/kg

Structure (SMILES): CC[C@H](C)[C@@H]1NC(=O)[C@H](Cc2ccc(OC)cc2)NC(=O)CC2(CCCCC2)SSC[C@H](C(=O)N2CCC[C@H]2C(=O)N[C@@H](CCCN)C(=O)NCC(N)=O)NC(=O)[C@H](CC(N)=O)NC(=O)[C@H](CCC(N)=O)NC1=O
- Kb [1]: 46.8 nM
- Kb [2]: 56.2 nM
- Kb [3]: 22.4 nM
- Kb [4]: 1260 nM
- Kb [5]: 36.3 nM

Structure (SMILES): COc1ccc(C[C@@H]2NC(=O)CC3(CCCCC3)SSC[C@H](C(=O)N3CCC[C@H]3C(=O)N[C@@H](CCCN=C(N)N)C(=O)NCC(N)=O)NC(=O)[C@H](CC(N)=O)NC(=O)[C@H](CCC(N)=O)NC(=O)[C@H](Cc3ccccc3)NC2=O)cc1
- ED [7]: 17 nM/kg

- ED [6]: 6.6 nM/kg
- Antidiuretic activity [8]: 0.015 U mg-1
- Kb [9]: 23.4 nM
- Kb [2]: 95.5 nM
- Kb [5]: 5.25 nM
Structure (SMILES): CC[C@H](C)[C@@H]1NC(=O)[C@H](Cc2ccc(OC)cc2)NC(=O)CC2(CCCCC2)SSC[C@@H](C(=O)N2CCC[C@H]2C(=O)N[C@@H](CCCN)C(=O)N[C@@H](Cc2ccc(O)cc2)C(N)=O)NC(=O)[C@H](CC(N)=O)NC(=O)[C@H]([C@@H](C)O)NC1=O

Structure (SMILES): CC[C@H](C)[C@@H]1NC(=O)[C@H](Cc2ccc(O)cc2)NC(=O)[C@H](N)CSSC[C@H](C(=O)N2CCC[C@H]2C(=O)N[C@@H](CC(C)C)C(=O)NCC(N)=O)NC(=O)[C@H](CC(N)=O)NC(=O)[C@H](CCC(N)=O)NC1=O
- Antidiuretic activity [10]: < 0.002 U mg-1
- Oxytocic activity [11]: 0.62 U mg-1

Structure (SMILES): CCOc1ccc(C[C@H]2NC(=O)CC3(CCCCC3)SSC[C@H](C(=O)N3CCC[C@H]3C(=O)N[C@@H](CCCN=C(N)N)C(=O)NCC(N)=O)NC(=O)[C@H](CC(N)=O)NC(=O)[C@H](C(C)C)NC(=O)[C@H](Cc3ccccc3)NC2=O)cc1
- Kb [2]: 8.71 nM
- Kb [12]: 69.2 nM

Structure (SMILES): CCOc1ccc(C[C@H]2NC(=O)CC3(CCCCC3)SSC[C@@H](C(=O)N3CCC[C@H]3C(=O)N[C@@H](CCCN=C(N)N)C(=O)NCC(N)=O)NC(=O)[C@H](CC(N)=O)NC(=O)[C@H](C(C)C)NC(=O)[C@H](Cc3ccccc3)NC2=O)cc1
- ED [6]: 0.45 nM/kg
- ED [8]: 1.1 nM/kg
- Kb [2]: 6.03 nM

Structure (SMILES): CCOc1ccc(C[C@@H]2NC(=O)CC3(CCCCC3)SSC[C@H](C(=O)N3CCC[C@H]3C(=O)N[C@@H](CCCN=C(N)N)C(=O)NCC(N)=O)NC(=O)[C@H](CC(N)=O)NC(=O)[C@H](C(C)C)NC(=O)[C@H](Cc3ccccc3)NC2=O)cc1
- Kb [2]: 64.6 nM

- pA2 [2]: 5.43
- pA2 [3]: 8.02
- pA2 [5]: 7.64
Structure (SMILES): CC[C@H](C)[C@@H]1NC(=O)[C@@H](Cc2c[nH]c3ccccc23)NC(=O)CC2(CCCCC2)SSC[C@@H](C(=O)N2CCC[C@H]2C(=O)N[C@@H](CCCN)C(=O)NCC(N)=O)NC(=O)[C@H](CC(N)=O)NC(=O)[C@H]([C@@H](C)O)NC1=O
- Kb [1]: 45.7 nM

Structure (SMILES): CC(C)[C@@H]1NC(=O)[C@H](Cc2ccccc2)NC(=O)[C@@H](Cc2ccccc2)NC(=O)CC2(CCCCC2)SSC[C@@H](C(=O)N2CCC[C@H]2C(=O)N[C@@H](CCCN=C(N)N)C(=O)NCC(N)=O)NC(=O)[C@H](CC(N)=O)NC1=O
- Kb [2]: 8.71 nM
- Kb [4]: 8.51 nM

Structure (SMILES): CC[C@H](C)[C@@H]1NC(=O)[C@@H](Cc2c[nH]c3ccccc23)NC(=O)CC2(CCCCC2)SSC[C@@H](C(=O)N2CCC[C@H]2C(=O)N[C@@H](CCCN=C(N)N)C(=O)NCC(N)=O)NC(=O)[C@H](CC(N)=O)NC(=O)[C@H](CCC(N)=O)NC1=O ([dW]IQNCPRG-NH2; linker N-5 via X2)
- Kb [2]: 27.5 nM
- Kb [4]: > 1260 nM

Structure (SMILES): CC[C@H](C)[C@@H]1NC(=O)[C@H](Cc2ccc(OC)cc2)NC(=O)CC2(CCCCC2)SSC[C@H](C(=O)N2CCC[C@H]2C(=O)N[C@@H](CCCN)C(=O)N[C@@H](Cc2ccc(O)cc2)C(N)=O)NC(=O)[C@H](CC(N)=O)NC(=O)[C@H]([C@@H](C)O)NC1=O
- ED [13]: 5.63 nM/kg

Structure (SMILES): CC[C@H](C)[C@@H]1NC(=O)[C@H](Cc2ccc(OC)cc2)NC(=O)CC2(CCCCC2)SSC[C@@H](C(=O)N2CCC[C@H]2C(=O)N[C@@H](CCCN)C(=O)NCC(N)=O)NC(=O)[C@H](CC(N)=O)NC(=O)[C@H](CCC(N)=O)NC1=O
- ED [6]: 0.8 nM/kg
- Antidiuretic activity [8]: 0.01 U mg-1
- Kb [9]: 3.02 nM
- Kb [2]: 11 nM
- Kb [5]: 13.2 nM
